Data published in US10265286B2, “Sequelae of cardiopulmonary bypass-induced pulmonary injury” (Vanderbilt University, priority 2016, dated 2019).

Tested on: human vascular endothelial cells
Test: Nitric oxide production by cultured human vascular endothelial cells (FIG. 23)
Assay type: cell-based
Experimental: These agents were administered to cultured human vascular endothelial cells stimulated with acetylcholine. Measurement of nitric oxide was through a Seiver's system of nitrate/nitrites.

## N=C(N)NCCC[C@H](N)C(=O)O [arginine]
Applied directly to endothelial cell, very high concentrations (10 mM)
  NO production: little sign of increased NO production
Cells stimulated with acetylcholine, nitrate/nitrites by Seiver's system
  production of nitric oxide: no effect on the production of nitric oxide
